“Also recorded” adds a separate entry of the source.

The test system of assay [1] is B-CLL cells from patients. The experiment in a line: Flow cytometry of cleaved PARP and TUNEL in B-CLL cells. Format: cell-based, human. The note with it: 10 μg/ml with 1 μg/ml sCD40L, 24 hours. As to the method: In this experiment, 0.4×10^6B-CLL cells from patients were stimulated with 1 μg/ml sCD40L (Alexis Corp., Bingham, Nottinghamshire, UK). CHIR12.12 (10 μg/ml) or control IgG was then added. […] After fixation and permeabilization, the cells were stained for cleaved PARP and TUNEL methods.
Background: A flow cytometer gives signals particle by particle.

In another assay the target is cell-surface CD40 (Homo sapiens, UniProt P25942). The experiment in a line: Flow cytometric CD40-ligand binding blockade and displacement. Conditions: flow cytometric assays / FACS. An excerpt: 2, 2000, and PCT International Application No. PCT/US01/30857, also titled “Human Anti-CD40 Antibodies,” filed Oct. 2, 2001, both of which are herein incorporated by reference in their entirety.
Chain of cell-surface CD40 (P25942 21-277): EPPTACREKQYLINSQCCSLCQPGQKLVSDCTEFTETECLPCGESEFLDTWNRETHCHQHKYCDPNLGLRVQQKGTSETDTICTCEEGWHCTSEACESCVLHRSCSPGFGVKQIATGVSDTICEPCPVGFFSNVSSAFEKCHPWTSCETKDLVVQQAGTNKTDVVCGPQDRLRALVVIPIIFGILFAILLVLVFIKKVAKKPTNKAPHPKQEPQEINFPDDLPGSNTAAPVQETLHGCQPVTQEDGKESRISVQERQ
(§1) 4, 2003, Nov. 26, 2003, and Apr. 27, 2004, and assigned U.S. Patent Application Nos. 60/517,337, 60/525,579, and 60/565,710, respectively, and International Patent Application No. PCT/US2004/037152, also entitled “Antagonist, Anti-CD40 Monoclonal Antibodies and Methods for Their Use,” filed Nov. 4, 2004; the contents of each of which are herein incorporated by reference in their entirety.

For assay [2], the system named is cancer cells from NHL and CLL patients. In words: In vitro CD40 ligand-mediated proliferation of patient cancer cells. Format: cell-based, human.
Excerpt: as §1

Assay [3] has as its system B-CLL cells from patients. The experiment in a line: Western blot of apoptosis and survival biomarkers in sCD40L-stimulated B-CLL cells. Format: cell-based, human. As to the method: In these experiments, 1.0×10^6 B-CLL cells from patients were stimulated with 1 μg/ml sCD40L (Alexis Corporation, Bingham, Noffinghamshire, UK). […] Cleaved PARP, which is a biomarker of apoptosis, and Bcl-xl, Bcl-2, and cIAP1, which are biomarkers of survival, were detected in cell lysates by Western blot analysis using commercially available antibodies specific for these biomarkers.
In these experiments, 1.0×10^6B-CLL cells from patients were stimulated with 1 μg/ml sCD40L (Alexis Corp., Bingham, Nottinghamshire, UK). […] Cells were collected at 22-24 hours. Western blot analysis with antibodies to cleaved PARP, caspase-3, and Bcl-xl were conducted on cell lysates. Antibody against β-actin was used for detecting equal loading and transfer efficiency.
In general terms: A western blot detects proteins with antibodies after separation by electrophoresis.

Assay [4] relates to IM-9 tumor cells (a human multiple myeloma cell line). The experiment in a line: Staged orthotopic IM-9 xenograft survival model. Conditions: 0.1, 1 or 10 mg/kg i.p. once a week from 7 days after implantation. Format: in vivo, SCID mice. As for the experimental part: SCID mice were inoculated subcutaneously with IM-9 tumor cells (a human multiple myeloma cell line expressing both CD40 and CD20) in 50% […]™ at 5×10^6 cells per mouse. In unstaged models, treatment was initiated one day after tumor implantation. […] Alternatively, tumor-bearing mice were injected with bortezomib at 0.5 mg/kg or 1 mg/kg intravenously once a week. Data were analyzed using the log-rank test.
In staged models, treatment was initiated 7 days after tumor cell implantation. […] Alternatively, tumor-bearing mice were injected with bortezomib at 0.5 mg/kg intravenously. Data were analyzed using the log-rank test.

Assay [5] concerns human lymphocytes from normal subjects. The experiment in a line: Proliferation of human lymphocytes. Format: cell-based.
A further assay deals with normal B cells. The experiment in a line: CD40L-induced production of VEGF in normal B cells. Format: cell-based, human. The text has this: In another experiment, CD40L-induced production of VEGF in normal B cells and CLL cells obtained from patients with CLL is examined in a manner similar to that described above.
The subject of a further assay is CLL patient samples. In words: p-p38 status in multiple B-CLL patient samples. Format: cell-based, human. The note with it: CLL patients with high or low basal p-p38; CD40L stimulation. An excerpt: Patients with low basal p-p38 activity have a higher induction of phosphorylation by CD40L stimulation than patients with a higher basal expression.
The test system of assay [6] is IM-9 tumor cells (a human multiple myeloma cell line). In words: IM-9 multiple myeloma subcutaneous xenograft model. Format: in vivo, SCID mice. As for the experimental part: SCID mice were inoculated subcutaneously with IM-9 tumor cells (a human multiple myeloma cell line expressing both CD40 and CD20) in 50% […]™ at 5×10^6 cells per mouse. […] Alternatively, bortezomib dosing at 1 mg/kg intravenously occurred on days 5, 8, 12, and 15 after tumor implantation. […] Antibody dosing occurred on days 8, 14, and 21 post tumor implantation, while bortezomib dosing occurred on days 8, 11, 14 and 18 post tumor implantation. […] Data were analyzed using the log-rank test.

Assay [7] deals with CD40-expressing target cells. The experiment in a line: ADCC activity of anti-CD40 antibodies (Table 1). Format: cell-based.
The test system of a further assay is IM-9 cells. The experiment in a line: ADCC, Calcein release with human NK cells, IM-9. Conditions: NK:target 10 to 1, 4 hours, read-out: ED50 (percent specific lysis). Format: cell-based. As for the experimental part:
Human MM cell lines, KMS-12-BM, IM-9, and ARH-77, were washed 3 times using R2 medium (Pheno red-free RPMI with 2% FBS) and re-suspended in R10 medium (Pheno red-free RPMI with 10% FBS) at the density of 1×10^6/mL. Cells were labeled by adding Calcein AM (final concentration […]) and incubating for 30 minutes at 37° C. in a humidified atmosphere with 5% CO2. Purified human NK cells and Calcein-labeled target cells were mixed in R10 medium at the ratio of 10 to 1 (5×10^4 NK cells and 5×10^3 target cells in […]) and added in U-bottom 96 well plate (Packard's Instrument, Meriden, Conn.). […] 1% NP-40 was added in 3 wells for the maximum cell lysis. Cells were incubated for 4 hours without disturbance at 37° C. in a humidified atmosphere with 5% CO2. The plate was then centrifuged at 300 rpm without brake for 5 minutes. […] supernatant was transferred into a new 96 well plate. The released Calcein in the supernatant was measured in arbitrary fluorescent unit (AFU) at 485 nm excitation and 535 nm emission using Tecan SpectraFluor Plus (Tecan U.S., Inc., Research Triangle, N.C.). The percent of specific lysis was calculated as: 100×(AFU test−AFU spontaneous release)/(AFU maximal release−AFU spontaneous release).
The ED50 was determined for each cell line by plotting the log of antibody concentration versus the percent specific lysis (see FIG. 16).

Setting [8] is: patients #4 and #21, 10 μg/ml, 24 hours, 1 μg/ml sCD40L.

With “CHIR-12.12: fully human anti-CD40 monoclonal antibody of the IgG1 isotype from hybridoma cell line 153.8E2.D10.D6.12.12 (ATCC PTA-5543)”, the “percentage of cells positive for cleaved PARP or TUNEL” value in [1] is given as “the percentage of positive cells for cleaved PARP or TUNEL returned to the levels seen without sCD40L stimulation”. In addition, in the assay with cell-surface CD40, the “displacement of pre-bound CD40-ligand” value is “displace the pre-bound CD40-ligand; also recorded: can compete off CD40-ligand pre-bound to cell surface CD40” and the “prevention of CD40-ligand binding to cell-surface CD40” value is on record as “prevent the binding of CD40-ligand to cell-surface CD40; also recorded: can prevent CD40-ligand binding”. The “effect on CD40 ligand-mediated proliferation of cancer cells” value in assay [2] is “inhibiting in vitro CD40 ligand-mediated proliferation of cancer cells from NHL and CLL patients”. Further, the “cleaved PARP, caspase-3 and Bcl-xl, dose response (Western blot)” value in assay [3] (0-20 μg/ml, 22-24 hours, 1 μg/ml sCD40L) was “induction of cleaved PARP and caspase-3 as well as reduction of Bcl-xl in a dose-dependent manner”. The “lowest dose with effect on cleaved PARP, caspase-3 and Bcl-xl” value in assay [3] (22-24 hours, 1 μg/ml sCD40L) is at least 0.01 µg/mL. Moreover, in assay [3] (patient #30, vs control IgG), the “XIAP and Bcl-2 (Western blot)” value was “reduced the expression of XIAP and Bcl-2”; the “cleaved PARP (Western blot)” value is on record as “induced the expression of cleaved PARP”. In addition, in [3] (patient #31, vs control IgG), the “cleaved PARP (Western blot)” value is listed as “induced the expression of cleaved PARP”; the “cyclin D1 and Bcl-xl (Western blot)” value was “reduced the expression of cyclin D1 and Bcl-xl”. Also, in [3] (setting [8]), the “Bcl-2 and TRAIL level (Western blot)” value is “no changes of Bcl-2 and TRAIL level”; the “Bcl-xl, XIAP and cIAP1 (Western blot)” value was “reduction of Bcl-xl, XIAP and cIAP1”. Also, in [3] (patients #4 and #21, 10 μg/ml, 24 hours, 1 μg/ml sCD40L, vs control IgG), the “cleaved PARP (Western blot)” value is “induction of cleaved PARP”. Also, the “survival of tumor-bearing mice” value in assay [4] is on record as “prolonged survival of tumor-bearing mice”. Further, in assay [5], the CD40L-induced lymphocyte proliferation entry is listed as “inhibits CD40L-induced lymphocyte proliferation”. In addition, in assay [5] (antibody alone), the “induction of lymphocyte proliferation (agonist activity)” value is recorded as “do not induce strong proliferation of human lymphocytes from normal subjects; also recorded: does not induce the proliferation of human peripheral blood lymphocytes”. Besides, the “CD40L-induced production of VEGF” value in the assay with normal B cells is given as “inhibit CD40L-induced production of VEGF”. For the same substance, in the assay with CLL patient samples, the p-p38 levels entry is on record as “lowered p-p38 levels back to basal phosphorylation”. In assay [6] (5 days after a single dose), the “Ki67+ proliferating cells (histology)” value is “significantly reduced the number of Ki67^+ proliferating cells”; the “cleaved caspase 3 and cleaved PARP (histology)” value is “increased the level of cleaved caspase 3 and cleaved PARP”. Also, in [6] (first study, CHIR-12.12 1 and 10 mg/kg i.p. days 5, 12, 18, bortezomib 1 mg/kg i.v. days 5, 8, 12, 15), the tumor growth entry was “inhibited tumor growth at 15, 18, and 21 days post tumor implantation”. Further, in assay [6] (second study, CHIR-12.12 1 mg/kg i.p. plus bortezomib 1 mg/kg i.v.), the “tumor volume, CHIR-12.12 in combination with bortezomib” value was “the efficacy observed was additive; also recorded: a tumor volume reduction was observed on days 13, 16, 20, 23, and 26”. The “killing of CD40-expressing target cells by ADCC” value in assay [7] is given as “able to kill CD40-expressing target cells”. In addition, the EC50 with IM-9 cells is 5.9 pM.

The values are drawn from US8337851B2, “Methods of monitoring the efficacy of anti-CD40 antibodies in treating a subject for a CD40-expressing cancer” (Novartis AG, priority 2005, dated 2012).
